The source of these data is US20120101147A1, “INHIBITION OF HDAC2 TO PROMOTE MEMORY” (The General Hospital Corporation d/b/a Massachusetts …, priority 2008, published 2012).

Each structure is given as a SMILES string.

Data set [1] relates to mice. Put plainly: Context-dependent fear conditioning memory test. Type of data set: in vivo, mouse. Conditions: C57/BL6 WT mice; 45 mg/kg every day for 10 days; foot shock 0.8 mA. As to the method:
Fear conditioning tests Context-dependent fear conditioning. Training consists of a 3 min exposure of mice to the conditioning box (context) followed by a foot shock (2 sec, 0.5/0.8/1.0 mA, constant current). The memory test was performed 24 hr later by re-exposing the mice for 3 min into the conditioning context. Freezing, defined as a lack of movement except for heart beat and respiration associated with a crouching posture, was recorded every 10 sec by two trained observers (one was unaware of the experimental conditions) during 3 min (a total of 18 sampling intervals). The number of observations indicating freezing obtained as a mean from both observers was expressed as a percentage of the total number of observations.
Chemical administration Suberoylanilide hydroxamic acid (SAHA) was synthesized as described previously in WO 93/07148 PTC/US92/08454. Sodium butyrate was purchased from Sigma (cat.B5887). SAHA and WT-161 were dissolved in DMSO as stock solutions and diluted in saline just before injection. Sodium butyrate was prepared in saline. Mice received intraperitoneal injection daily with either SAHA or saline for 10 days or 21 days.
C57/BL6 WT mice were injected with vehicle or BRD-6929 for 10 days. On day 11, mice were trained in contextual fear conditioning paradigm (Training consisted of a 3 min exposure of mice to the conditioning box (context, TSE) followed by a foot shock (2 sec, 0.8 mA, constant current). One hour after training, mice were injected with BRD-6929 or vehicle. On day 12, mice were returned to the training box and the freezing behavior were monitored and recorded.

The subject of data set [2] is Class II HDAC enzymes. Put plainly: In vitro enzymatic inhibition assay against HDAC isoforms. Type of data set: biochemical. How it is done:
(§1) The enzymatic inhibitory activity of multiple HDAC inhibitors was assayed against several of the known HDAC isoforms and is shown in FIG. 8. SAHA was included as a reference mixed class I-class II inhibitor. […] All of the BRD numbered compounds are derived from the ortho-anilide class of compounds. Not all compounds from this class are expected to bind the class II HDACs.

Data set [3] has as its target T1, HDAC8 (Homo sapiens, UniProt Q9BY41).
T1 sequence (Q9BY41 1-377): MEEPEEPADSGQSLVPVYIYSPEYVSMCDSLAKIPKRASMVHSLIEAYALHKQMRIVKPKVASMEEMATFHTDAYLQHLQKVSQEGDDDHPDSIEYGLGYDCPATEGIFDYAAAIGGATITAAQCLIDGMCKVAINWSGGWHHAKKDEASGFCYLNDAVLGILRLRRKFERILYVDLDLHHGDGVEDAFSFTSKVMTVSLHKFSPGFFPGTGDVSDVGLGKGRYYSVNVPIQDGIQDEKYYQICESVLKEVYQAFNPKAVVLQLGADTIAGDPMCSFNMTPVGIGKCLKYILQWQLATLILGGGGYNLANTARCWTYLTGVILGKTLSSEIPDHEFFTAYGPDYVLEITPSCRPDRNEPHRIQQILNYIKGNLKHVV
The data set is described as above. The class given is biochemical. How it is done:
as §1

Data set [4] has as its system HDAC1,2 vs. HDAC3. Kind of data set: Selectivity for HDAC1,2 vs. HDAC3. Type of data set: biochemical. The text has this: All of the BRD numbered compounds are derived from the ortho-anilide class of compounds.
Two sets of data with 3 independent samples/set are presented. Histograms representing the quantification of westerns are also shown.

For data set [5], the system named is H4K12 acetylation in primary striatal cells. Put plainly: Western blot of H4K12 acetylation in primary striatal cells. Conditions: 1 and 10 uM; relative to DMSO. The class given is cell-based, mouse. The source says: A. Western blots of primary striatal cells isolated from mouse brain that have been treated with HDAC inhibitors. Two sets of data with 3 independent samples/set. B. Histograms represent the quantification of westerns shown in panel A.
Two sets of data with 3 independent samples/set are presented. Histograms representing the quantification of westerns are also shown. Relative to DMSO controls, BRD-6929 has a significant effect on the acetylation levels of histone locus H4K12. BRD-6929 treatment results in a 5-10 fold increase at 1 and 10 uM. BRD-6929 is an HDAC 1,2 selective compound, and has 200× selectivity for HDAC1,2 vs. HDAC3. […] In this case the data was compared to controls: SAHA and BRD-3696 (CI-994). An HDAC1,2 selective compound is as effective at increasing acetylation as an HDAC1,2,3 inhibitor and a pan inhibitor (i.e. SAHA). Inhibiting HDAC1,2 is sufficient to effect increased acetylation at this histone locus.
(In western blotting, separated proteins are transferred to a membrane and probed.)

Data set [6] has as its system tetra-acetylated H4. Put plainly: Western blot of tetra-acetylated H4 in primary striatal cells. The class given is cell-based, mouse. Conditions: relative to DMSO controls. How it is done: (§2) Four compounds were tested including CI-994 (BRD-3696) and SAHA. […] BRD-6929 and BRD-5298 treatment results in a 2-5 fold increase in both marks at 1 and 10 uM.
Data set [7] deals with tetra-acetylated H2B. Kind of data set: Western blot of tetra-acetylated H2B in primary striatal cells. Type of data set: cell-based, mouse. Conditions: relative to DMSO controls. As to the method: as §2
For data set [8], the system named is primary neuronal cultures. Kind of data set: Immunofluorescence: overall cell number in primary neuronal cultures. The class given is cell-based, mouse. Conditions: 1 and 10 uM, 6 h. As to the method:
(§3) 1) Compounds were pin transferred from 384-well plates (Abgene) using a 185 nl pin tool using a no touch bottom protocol.
(§4) 1) Media was aspirated using a plate washer (Tecan) protocol that leaves ˜5 ul residual volume and without touching the bottom of plates); or alternatively, wells were gently aspirated to remove media with 12-channel aspirator wand.
(§5) 2) A multichannel pipet or use liquid handling system (e.g. Combi, standard tubing; slow speed) was used to add 75 ul formaldehyde (4% in PBS) and wells incubated 10 min at room temperature.
(§6) 3) Formaldehyde was aspirated and cells rinsed 3 times with 100 ul PBS;
(§7) 4) PBS was aspirated and 100 ul blocking/permeablization buffer (0.1% Triton-X100, 2% BSA, in PBS) added and wells incubate 1 hour at room temperature.
(§8) 5) Blocking buffer was aspirated and 50 ul primary antibody diluted 1:500 in blocking buffer was added and wells incubated overnight at 4 degrees.
(§9) 1) Primary antibody was aspirated and wells rinsed 3 times with 100 ul blocking buffer
(§10) 2) 50 ul of secondary antibody diluted 1:500 and with Hoeschst (1:1000 from 10 mg/mL (16 mM) stock) added and wells incubated 1.5 hours at room temperature covered in foil to prevent photobleaching.
(§11) 3) Wells were rinsed 3 times with 100 ul PBS, and a 100 uls of PBS added and the plates, sealed
(§12) 4) Plates were then read on Acumen/IX Micro

For data set [9], the system named is H4K12 acetylation. Put plainly: Immunofluorescence: H4K12 acetylation in primary cultures (striatum). Conditions: 10 uM, 6 h. The class given is cell-based, mouse. As to the method:
as §3, §4, §5, §6, §7, §8, §9, §10, §11, §12

For data set [10], the system named is H2B acetylation. Kind of data set: Immunofluorescence: H2B acetylation in primary neuronal cell cultures. The class given is cell-based, mouse. Conditions: 1 and 10 uM, 6 h. How it is done:
as §3, §4, §5, §6, §7, §8, §9, §10, §11, §12

Data set [11] in a line: Pharmacokinetics in plasma and brain after single i.p. dose. The class given is in vivo. Conditions: single 45 mg/kg i.p.; C-57 mice. As to the method:
FIG. 17 is the concentration-time curve of BRD-6929 in plasma and brain following single 45 mg/kg i.p. dose in mice.
FIG. 17 represents a summary of the pharmacokinetic data after a single dose of 45 mg/kg BRD-6929 administered systemically via intraperitoneal injection. The concentration time curves for BRD-6929 in the plasma and brain of C-57 mice from 5 min to 24 h are shown.

Data set [12] relates to tetra-acetylated H2B. Kind of data set: Western blot of cortex after acute treatment: tetra-acetylated H2B. Type of data set: in vivo, mice. How it is done:
(§13) The experimental protocol for acute treatment with BRD-6929 and the corresponding effects on histone acetylation in brain specific regions of adult male C57BL/6J mice is shown in FIG. 18. Crude Protein Lysis Protocol for western blot analysis of specific brain sections.
(§14) a. On ice, thaw frozen tissue and immediately homogenize carefully in 250 uL of ice-cold Suspension Buffer.
(§15) b. As soon as possible, add an equal volume of 2×SDS gel-loading buffer, pipetting up and down to mix.
(§16) 2. Place the sample at 95° C. for 5 min.
(§17) 3. Shear viscous chromosomal DNA by smoothly passaging through 23-25 gauge hypodermic needle (2-3×) or by sonicating briefly (Al used the needle method and it worked fine). Avoid foaming/bubbles.
(§18) 4. Centrifuge the sample at 10,000 g for 10 min at room temperature, transferring supernatant to fresh tube.

The test system of data set [13] is H2BK5. Put plainly: Western blot of cortex after acute treatment: H2BK5 acetylation. Type of data set: in vivo, mice. Conditions: cortex after 1 hour. As to the method:
as §13, §14, §15, §16, §17, §18

The test system of data set [14] is tetra-acetylated H2B. Put plainly: Western blot of whole brain after chronic administration: tetra-acetylated H2B. Conditions: every day for 10 days. Type of data set: in vivo, mice.
Data set [15] relates to H4K12 acetylation in HEK293 cells. Put plainly: Western blot of H4K12 acetylation in whole HEK293 cells. The class given is cell-based. Conditions: 10 uM, 6 hour. As to the method: Series of compounds incubated with whole HEK293 cells at 10 uM for a 6 hour time period. Western blot showing increased acetylation levels over DMSO controls using anti-acetyl H4K12 antibodies and horseradish peroxidase conjugated secondary antibody along with a luminol-based substrate.
Relative to the DMSO control, multiple selectivity profiles are effective in increasing H4K12 acetylation levels. […] BRD-4097 is the negative control.
Standard western blotting methods were used to measure the effects of HDAC inhibitors on histone acetylation marks in […]. Series of compounds were incubated with whole HEK293 cells at 10 uM for a 6 hour time period. […] Quantification of the raw western data (FIG. 10) established that relative to the DMSO control, multiple selectivity profiles are effective in increasing H4K12 acetylation levels, and that HDAC 1,2 and HDAC 1,2,3 selective inhibitors have robust HDAC activity in whole cells on a specific histone loci (H4K12).

Consider `CC(=O)Nc1ccc(C(=O)Nc2cc(-c3cccs3)ccc2N)cc1` [BRD-6929, 4-acetamido-N-(2-amino-5-(thiophen-2-yl)phenyl)benzamide], for which, in data set [1], the “memory in contextual fear conditioning paradigm (% time freezing)” value is reported as “improved”. Besides, in data set [2], the “inhibition of Class II HDAC enzymes” value is “does not inhibit”. The “inhibition of HDAC8” value in [3] is recorded as “does not inhibit”. In addition, the “selectivity for HDAC1,2 vs. HDAC3” value in data set [4] came out at 200 ×. In addition, in [5], the “increase in acetylation of histone locus H4K12” value is 5-10 fold. Besides, the “tetra-acetylated H4” value in data set [6] is “significantly increased”. The “tetra-acetylated H2B” value in data set [7] is reported as “trend toward increasing”. The overall cell number entry in [8] (primary cultures (cortex and striatum)) is “does not cause an increase or decrease”. The overall cell number entry in data set [8] (primary neuronal cell cultures) is “do not cause an increase or decrease”. The H4K12 acetylation entry in data set [9] is listed as “increase”. Moreover, in [10] (primary cultures (striatum)), the “increase in H2B tetra-acetylation” value was 2-3 fold. Also, the H2B acetylation entry in [10] (primary neuronal cell cultures) is recorded as “significant increase”. Also, in [11], the blood-brain barrier penetration result is given as “crosses the blood-brain barrier”, the “brain AUC” value came out at 3.9 µM and the “brain Cmax” value was found to be 830 nM. Also, the “increase in H2B (tetra) histone acetylation in cortex” value in [12] (acute treatment, normalized to histone H3) is on record as 1.5-2 fold. Moreover, the “levels of tetra-acetylated H2B in the cortex” value in [12] (single systemic dose, adult male C57BL/6J mice) is “significant increase”. In addition, the “increase in acetylation levels for H2BK5” value in [13] is recorded as 1.5-2 fold. The “tetra-acetylated H2B relative to the vehicle control” value in [14] is listed as “increase”.

Regarding `Nc1ccc(-c2cccs2)cc1NC(=O)c1ccc(/C=C/C(=O)NCCc2ccccn2)cc1` [BRD-9853, (E)-N-(2-amino-5-(thiophen-2-yl)phenyl)-4-(3-oxo-3-(2-(pyridin-2-yl)ethylamino)prop-1-enyl)benzamide], the “H4K12 acetylation levels relative to DMSO control” value in data set [15] was “minimal activity”.
